{"source": "ChEMBL document CHEMBL5465560", "about": "“Selectivity Literature for EUbOPEN Chemogenomic Library” (2024)", "key": {"[1]": {"target": "T1, Homeodomain-interacting protein kinase 4 (Homo sapiens) (UniProt Q8NE63)", "T1 sequence (whole entry)": "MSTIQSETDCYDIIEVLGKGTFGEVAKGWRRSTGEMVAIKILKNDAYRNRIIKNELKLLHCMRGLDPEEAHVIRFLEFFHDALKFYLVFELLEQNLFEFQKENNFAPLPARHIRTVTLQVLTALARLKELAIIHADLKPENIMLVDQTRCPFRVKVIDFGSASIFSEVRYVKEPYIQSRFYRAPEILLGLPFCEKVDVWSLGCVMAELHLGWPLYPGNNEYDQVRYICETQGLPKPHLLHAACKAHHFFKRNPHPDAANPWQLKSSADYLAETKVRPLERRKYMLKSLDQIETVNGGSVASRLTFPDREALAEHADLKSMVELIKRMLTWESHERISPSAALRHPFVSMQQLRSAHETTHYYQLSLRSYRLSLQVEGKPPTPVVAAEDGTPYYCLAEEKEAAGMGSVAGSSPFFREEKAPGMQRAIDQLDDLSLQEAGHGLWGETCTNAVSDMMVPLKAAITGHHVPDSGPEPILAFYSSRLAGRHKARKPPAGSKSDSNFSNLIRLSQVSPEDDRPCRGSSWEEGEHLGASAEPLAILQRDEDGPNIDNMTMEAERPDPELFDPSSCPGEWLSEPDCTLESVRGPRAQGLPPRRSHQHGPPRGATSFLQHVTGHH", "experiment": "Selectivity interaction (KinomeScan (DiscoverX)) EUB0000695a HIPK4", "settings": "at 100 nM"}, "[2]": {"target": "Protein kinase C theta type (Homo sapiens, UniProt Q04759)", "sequence (Q04759 whole entry, looked up)": "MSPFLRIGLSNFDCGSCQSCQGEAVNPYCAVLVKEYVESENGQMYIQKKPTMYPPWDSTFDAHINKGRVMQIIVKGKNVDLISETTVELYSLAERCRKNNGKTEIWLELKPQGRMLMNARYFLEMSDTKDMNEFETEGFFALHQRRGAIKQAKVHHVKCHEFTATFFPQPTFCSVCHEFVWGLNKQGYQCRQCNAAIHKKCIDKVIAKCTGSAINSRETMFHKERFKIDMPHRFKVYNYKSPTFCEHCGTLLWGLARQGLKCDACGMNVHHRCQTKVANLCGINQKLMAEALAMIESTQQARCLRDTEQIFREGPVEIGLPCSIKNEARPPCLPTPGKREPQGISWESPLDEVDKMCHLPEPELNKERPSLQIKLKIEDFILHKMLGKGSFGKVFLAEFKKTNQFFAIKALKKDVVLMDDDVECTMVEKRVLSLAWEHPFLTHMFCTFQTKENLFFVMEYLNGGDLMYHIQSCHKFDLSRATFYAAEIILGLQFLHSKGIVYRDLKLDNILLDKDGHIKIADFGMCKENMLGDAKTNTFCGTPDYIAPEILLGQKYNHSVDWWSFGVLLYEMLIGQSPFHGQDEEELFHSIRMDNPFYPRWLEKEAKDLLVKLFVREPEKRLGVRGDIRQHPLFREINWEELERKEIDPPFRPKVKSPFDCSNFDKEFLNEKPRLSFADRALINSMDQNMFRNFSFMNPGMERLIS", "experiment": "Selectivity interaction (KinomeScan (DiscoverX)) EUB0001079a PRKCQ", "settings": "at 1 µM"}, "[3]": {"target": "Ribosomal protein S6 kinase alpha-3 (Homo sapiens, UniProt P51812)", "sequence (P51812 whole entry)": "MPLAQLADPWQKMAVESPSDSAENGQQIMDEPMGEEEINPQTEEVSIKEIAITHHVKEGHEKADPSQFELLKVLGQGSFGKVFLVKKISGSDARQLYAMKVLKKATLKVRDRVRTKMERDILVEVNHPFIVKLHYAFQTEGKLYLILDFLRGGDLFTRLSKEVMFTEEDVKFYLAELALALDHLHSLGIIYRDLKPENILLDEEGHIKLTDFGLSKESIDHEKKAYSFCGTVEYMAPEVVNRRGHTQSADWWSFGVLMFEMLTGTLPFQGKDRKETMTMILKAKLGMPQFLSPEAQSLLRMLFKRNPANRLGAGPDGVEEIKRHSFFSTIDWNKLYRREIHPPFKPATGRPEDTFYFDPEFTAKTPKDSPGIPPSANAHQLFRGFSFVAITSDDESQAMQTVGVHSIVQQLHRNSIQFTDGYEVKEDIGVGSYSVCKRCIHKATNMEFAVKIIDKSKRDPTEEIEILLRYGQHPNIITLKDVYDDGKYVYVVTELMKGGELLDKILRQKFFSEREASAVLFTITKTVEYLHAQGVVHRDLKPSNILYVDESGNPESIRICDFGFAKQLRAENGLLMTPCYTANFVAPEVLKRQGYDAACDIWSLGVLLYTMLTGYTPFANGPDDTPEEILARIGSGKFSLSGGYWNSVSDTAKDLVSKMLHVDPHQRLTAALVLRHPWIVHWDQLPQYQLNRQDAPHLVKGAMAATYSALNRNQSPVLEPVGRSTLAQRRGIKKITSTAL", "experiment": "Selectivity interaction (KinomeScan (DiscoverX)) EUB0001079a RPS6KA3", "settings": "at 1 µM"}, "[4]": {"target": "T2, Mitogen-activated protein kinase kinase kinase 7 (Homo sapiens) (UniProt O43318)", "T2 sequence (whole entry)": "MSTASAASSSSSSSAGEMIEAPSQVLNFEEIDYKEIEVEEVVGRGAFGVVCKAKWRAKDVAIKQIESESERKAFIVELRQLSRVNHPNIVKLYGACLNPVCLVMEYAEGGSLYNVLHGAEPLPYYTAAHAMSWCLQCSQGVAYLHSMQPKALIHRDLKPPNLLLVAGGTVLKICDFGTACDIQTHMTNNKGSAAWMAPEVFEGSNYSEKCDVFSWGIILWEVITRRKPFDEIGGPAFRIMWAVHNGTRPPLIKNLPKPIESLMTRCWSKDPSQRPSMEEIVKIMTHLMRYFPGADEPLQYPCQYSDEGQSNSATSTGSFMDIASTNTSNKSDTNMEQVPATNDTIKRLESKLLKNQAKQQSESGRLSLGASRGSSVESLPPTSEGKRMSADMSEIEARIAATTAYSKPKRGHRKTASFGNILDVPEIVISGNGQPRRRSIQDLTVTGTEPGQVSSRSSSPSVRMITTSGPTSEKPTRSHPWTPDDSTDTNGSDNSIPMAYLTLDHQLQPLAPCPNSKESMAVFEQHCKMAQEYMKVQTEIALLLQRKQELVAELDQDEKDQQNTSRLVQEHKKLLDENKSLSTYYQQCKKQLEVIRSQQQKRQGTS", "experiment": "Selectivity interaction (LanthaScreen Eu Kinase Binding Assay) EUB0001632a MAP3K7", "settings": "at 10 µM"}, "[5]": {"target": "Rho-associated protein kinase 1 (Homo sapiens) (UniProt Q13464)", "sequence (Q13464 2-1354 limits assumed)": "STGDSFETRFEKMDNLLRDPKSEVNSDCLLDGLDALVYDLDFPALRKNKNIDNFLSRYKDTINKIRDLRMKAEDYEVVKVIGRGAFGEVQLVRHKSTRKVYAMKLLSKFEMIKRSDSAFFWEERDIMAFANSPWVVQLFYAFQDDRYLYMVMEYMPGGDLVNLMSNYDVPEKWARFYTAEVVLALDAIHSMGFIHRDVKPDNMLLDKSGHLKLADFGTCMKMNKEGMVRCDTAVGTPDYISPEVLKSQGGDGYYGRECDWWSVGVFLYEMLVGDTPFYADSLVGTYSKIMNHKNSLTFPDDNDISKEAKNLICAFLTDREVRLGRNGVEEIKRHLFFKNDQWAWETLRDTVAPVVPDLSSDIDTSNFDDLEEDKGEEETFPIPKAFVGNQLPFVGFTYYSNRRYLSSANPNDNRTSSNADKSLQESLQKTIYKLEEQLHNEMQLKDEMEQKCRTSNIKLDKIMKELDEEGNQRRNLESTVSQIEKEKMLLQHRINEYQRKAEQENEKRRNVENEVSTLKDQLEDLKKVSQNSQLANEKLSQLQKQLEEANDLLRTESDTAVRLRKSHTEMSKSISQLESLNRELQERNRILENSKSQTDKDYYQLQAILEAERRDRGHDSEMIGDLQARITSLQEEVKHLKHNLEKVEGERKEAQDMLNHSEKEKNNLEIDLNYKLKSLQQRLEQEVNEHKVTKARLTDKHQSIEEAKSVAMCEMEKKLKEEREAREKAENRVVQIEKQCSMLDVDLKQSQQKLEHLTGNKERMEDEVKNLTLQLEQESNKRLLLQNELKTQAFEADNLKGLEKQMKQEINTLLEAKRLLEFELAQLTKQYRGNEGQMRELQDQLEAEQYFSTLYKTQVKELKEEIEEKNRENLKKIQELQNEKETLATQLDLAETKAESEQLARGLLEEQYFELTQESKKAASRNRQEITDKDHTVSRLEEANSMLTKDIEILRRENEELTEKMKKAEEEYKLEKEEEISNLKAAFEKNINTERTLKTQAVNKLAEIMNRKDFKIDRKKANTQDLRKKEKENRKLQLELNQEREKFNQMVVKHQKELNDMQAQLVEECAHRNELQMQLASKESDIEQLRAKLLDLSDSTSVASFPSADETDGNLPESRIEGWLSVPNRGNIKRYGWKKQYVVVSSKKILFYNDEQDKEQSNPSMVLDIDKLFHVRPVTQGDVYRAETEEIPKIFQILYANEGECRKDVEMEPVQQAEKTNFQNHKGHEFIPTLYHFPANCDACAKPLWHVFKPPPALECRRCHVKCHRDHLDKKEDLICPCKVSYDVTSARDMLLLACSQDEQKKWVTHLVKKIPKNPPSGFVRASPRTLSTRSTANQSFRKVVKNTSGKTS", "experiment": "Selectivity interaction (KinomeScan (DiscoverX)) EUB0001619a ROCK1", "settings": "at 1 µM"}, "[6]": {"target": "Tyrosine-protein kinase ABL2 (Homo sapiens, UniProt P42684)", "sequence (P42684 whole entry)": "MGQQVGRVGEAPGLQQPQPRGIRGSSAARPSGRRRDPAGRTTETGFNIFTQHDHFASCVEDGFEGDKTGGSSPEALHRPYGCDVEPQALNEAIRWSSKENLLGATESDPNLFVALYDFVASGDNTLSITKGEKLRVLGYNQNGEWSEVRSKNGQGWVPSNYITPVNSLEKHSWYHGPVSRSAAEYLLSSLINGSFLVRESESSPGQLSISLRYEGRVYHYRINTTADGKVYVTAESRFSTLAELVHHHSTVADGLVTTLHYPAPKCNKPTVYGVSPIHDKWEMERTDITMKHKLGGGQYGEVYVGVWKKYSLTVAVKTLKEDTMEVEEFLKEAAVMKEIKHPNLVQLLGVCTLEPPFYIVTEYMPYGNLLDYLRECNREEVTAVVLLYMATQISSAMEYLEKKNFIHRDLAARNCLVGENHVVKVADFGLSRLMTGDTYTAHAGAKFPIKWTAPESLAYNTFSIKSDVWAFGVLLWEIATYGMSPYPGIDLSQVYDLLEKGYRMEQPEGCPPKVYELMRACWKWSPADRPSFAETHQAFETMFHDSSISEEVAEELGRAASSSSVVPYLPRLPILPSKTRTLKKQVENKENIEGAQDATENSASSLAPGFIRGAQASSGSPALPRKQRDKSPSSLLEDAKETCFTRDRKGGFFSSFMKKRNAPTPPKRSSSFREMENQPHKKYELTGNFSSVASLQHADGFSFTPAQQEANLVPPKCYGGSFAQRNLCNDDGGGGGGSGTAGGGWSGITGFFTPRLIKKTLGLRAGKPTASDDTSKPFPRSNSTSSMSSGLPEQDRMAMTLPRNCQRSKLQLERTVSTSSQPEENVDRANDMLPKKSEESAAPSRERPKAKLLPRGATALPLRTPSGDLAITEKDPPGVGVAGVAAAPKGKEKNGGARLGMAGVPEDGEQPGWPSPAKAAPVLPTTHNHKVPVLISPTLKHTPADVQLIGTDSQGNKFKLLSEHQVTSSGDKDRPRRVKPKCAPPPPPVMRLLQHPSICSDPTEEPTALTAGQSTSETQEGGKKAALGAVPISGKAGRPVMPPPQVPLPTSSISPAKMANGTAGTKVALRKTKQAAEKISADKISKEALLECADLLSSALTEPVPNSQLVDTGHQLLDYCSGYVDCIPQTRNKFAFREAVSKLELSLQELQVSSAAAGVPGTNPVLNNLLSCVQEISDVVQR", "experiment": "Selectivity interaction (ActivX KiNativ screen (ex vivo kinase selectivity in human PBMCs)) EUB0001619a ABL2", "assay_type": "cell-based", "settings": "PBMC, at 1 µM"}, "[7]": {"target": "T3, MAP/microtubule affinity-regulating kinase 4 (Homo sapiens) (UniProt Q96L34)", "T3 sequence (whole entry)": "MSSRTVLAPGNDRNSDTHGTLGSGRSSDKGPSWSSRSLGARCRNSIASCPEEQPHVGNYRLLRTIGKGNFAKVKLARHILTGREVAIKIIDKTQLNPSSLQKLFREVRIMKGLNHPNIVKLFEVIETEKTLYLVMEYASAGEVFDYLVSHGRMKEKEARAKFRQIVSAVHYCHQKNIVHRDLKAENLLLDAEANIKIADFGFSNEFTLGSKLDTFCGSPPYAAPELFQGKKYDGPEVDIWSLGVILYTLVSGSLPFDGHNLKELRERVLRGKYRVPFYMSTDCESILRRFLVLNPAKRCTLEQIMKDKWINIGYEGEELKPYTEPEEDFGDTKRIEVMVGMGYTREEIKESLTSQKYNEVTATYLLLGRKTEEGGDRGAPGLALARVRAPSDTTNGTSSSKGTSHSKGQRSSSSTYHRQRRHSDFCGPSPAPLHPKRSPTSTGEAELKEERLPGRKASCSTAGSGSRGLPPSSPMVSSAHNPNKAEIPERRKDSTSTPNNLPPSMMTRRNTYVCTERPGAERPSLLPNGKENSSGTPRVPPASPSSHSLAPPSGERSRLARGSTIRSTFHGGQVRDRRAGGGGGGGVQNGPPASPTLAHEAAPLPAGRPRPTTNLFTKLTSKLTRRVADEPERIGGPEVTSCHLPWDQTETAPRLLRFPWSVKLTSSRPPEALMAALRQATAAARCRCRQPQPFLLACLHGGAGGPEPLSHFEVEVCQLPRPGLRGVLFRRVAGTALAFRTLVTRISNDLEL", "experiment": "Selectivity interaction (KinomeScan (DiscoverX)) EUB0000618a MARK4", "settings": "at 10 µM"}, "[8]": {"target": "T4, Mitogen-activated protein kinase kinase kinase 2 (Homo sapiens) (UniProt Q9Y2U5)", "T4 sequence (whole entry)": "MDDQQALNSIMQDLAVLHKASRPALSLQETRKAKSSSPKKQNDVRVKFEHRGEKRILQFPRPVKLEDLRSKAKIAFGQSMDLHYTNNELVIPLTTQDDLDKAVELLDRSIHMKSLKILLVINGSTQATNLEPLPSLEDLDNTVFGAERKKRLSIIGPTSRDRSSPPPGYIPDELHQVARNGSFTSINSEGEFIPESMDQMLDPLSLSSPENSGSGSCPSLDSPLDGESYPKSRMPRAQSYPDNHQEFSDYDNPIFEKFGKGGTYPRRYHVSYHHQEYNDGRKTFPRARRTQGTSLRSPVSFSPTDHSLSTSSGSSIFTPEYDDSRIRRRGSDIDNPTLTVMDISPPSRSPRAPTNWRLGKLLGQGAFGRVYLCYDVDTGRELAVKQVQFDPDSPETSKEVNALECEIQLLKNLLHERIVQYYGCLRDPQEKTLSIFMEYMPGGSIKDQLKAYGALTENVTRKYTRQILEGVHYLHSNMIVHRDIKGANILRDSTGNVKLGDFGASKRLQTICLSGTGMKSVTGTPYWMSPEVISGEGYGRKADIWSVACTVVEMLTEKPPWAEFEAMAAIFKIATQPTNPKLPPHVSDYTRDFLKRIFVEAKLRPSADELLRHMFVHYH", "experiment": "Selectivity interaction (KinomeScan (DiscoverX)) EUB0000092b MAP3K2", "settings": "at 10 µM"}}, "data": [{"smiles": "Cc1cc(F)c(C(=O)Nc2cccc(-c3nncn3C(C)C)n2)cc1-n1cnc(C2CC2)c1", "values": [{"measurement": "% of control", "setting": "[1]", "result": 100, "unit": "%"}]}, {"smiles": "Nc1cnc(N2CCc3cc(S(=O)(=O)Nc4c(F)cc(Cl)cc4F)cc(N4CCCC4=O)c32)nc1", "note": "[TP-020n]", "values": [{"measurement": "% of control", "setting": "[2]", "result": 89, "unit": "%"}, {"measurement": "% of control", "setting": "[3]", "result": 84, "unit": "%"}]}, {"smiles": "Cn1cc(-n2cnc3c(NCc4nc5cc(Cl)c(Cl)cc5[nH]4)nc(N4CCOCC4)nc32)cn1", "values": [{"measurement": "% of inhibition", "setting": "[4]", "result": -112, "unit": "%"}]}, {"smiles": "N#Cc1cccc(-c2c[nH]c3ncnc(N4CCOCC4)c23)c1", "values": [{"measurement": "% of control", "setting": "[5]", "result": 85, "unit": "%"}, {"measurement": "% of inhibition", "setting": "[6]", "result": -53, "unit": "%"}]}, {"smiles": "O[C@H]1CC[C@H](Nc2ncc3nc(Nc4c(F)cc(F)cc4F)n([C@H]4CCOC4)c3n2)CC1", "values": [{"measurement": "% of control", "setting": "[7]", "result": 100, "unit": "%"}]}, {"smiles": "CCC(=O)N1CCN(c2ccc(-n3c(=O)ccc4cnc5ccc(-c6cnc7ccccc7c6)cc5c43)cc2C(F)(F)F)CC1", "values": [{"measurement": "% of control", "setting": "[8]", "result": 62, "unit": "%"}]}]}
